Assay results from US20060019964A1, “Compounds” (priority 2002, published 2006).

How the values were obtained:
CNS penetration = assay type: in vivo, male CD Sprague Dawley rats; conditions: male, CD Sprague Dawley, brain; rat, 1 mg/kg intravenous, 5 minutes post-dose; described as low CNS penetration; read-out: CNS penetration (compound in brain tissue)
Method: Compounds were dosed intravenously at a nominal dose level of 1 mg/kg to male CD Sprague Dawley rats. Compounds were formulated in 5% DMSO/45% PEG200/50% water. Blood samples were taken under terminal anaesthesia with isoflurane at 5 minutes post-dose and the brains were also removed for assessment of brain penetration. Blood samples were taken directly into heparinised tubes. Blood samples were prepared for analysis using protein precipitation and brain samples were prepared using extraction of drug from brain by homogenisation and subsequent protein precipitation. The concentration of parent drug in blood and brain extracts was determined by quantitative LC-MS/MS analysis using compound-specific mass transitions.

Dog pharmacokinetics = assay type: in vivo, male Beagle dogs
Method: Compounds were dosed to male Beagle dogs by single intravenous or oral administration at a nominal dose level of 1 mg/kg and 2 mg/kg respectively. The study was carried out according to a crossover design such that the same dog was used for both dosing events and the dosing events occurred 1 week apart. Compounds were formulated in 5% DMSO,45% Peg200,50% water. An intravenous profile was obtained by taking serial blood samples at 0.083, 0.25, 0.5, 0.75, 1, 2, 4, 6 & 12 hr post dose. An oral profile was obtained by taking serial blood samples at 0.25, 0.5, 0.75, 1, 2, 4, 6, 12 & 24 hr post dose. Blood samples were taken directly into heparinised tubes. Blood samples were prepared by protein precipitation and subjected to quantitative analysis by LC-MS/MS using compound-specific mass transitions. Drug concentration-time profiles were generated and non-compartmental PK analysis used to generate estimates of half-life, clearance, volume of distribution and oral bioavailability.

Rat pharmacokinetics = assay type: in vivo, male CD Sprague Dawley rats
Method: Compounds were dosed to male CD Sprague Dawley rats by single intravenous or oral administration at a nominal dose level of 1 mg/kg and 3 mg/kg respectively. Compounds were formulated in 5% DMSO,45% PEG200,50% water. An intravenous profile was obtained by taking serial or terminal blood samples at 0.083, 0.25, 0.5, 1, 2, 4, and 7 hours post dose. An oral profile was obtained by taking serial or terminal blood samples at 0.25, 0.5, 1, 2, 4, 7 and 12 hours post dose. Blood samples were taken directly into heparinised tubes. Blood samples were prepared by protein precipitation and subjected to quantitative analysis by LC-MS/MS using compound-specific mass transitions. Drug concentration-time profiles were generated and non-compartmental PK analysis used to generate estimates of half-life, clearance, volume of distribution and oral bioavailability.

human H1 receptor = target: T1, human H1 receptor (Homo sapiens, UniProt P35367); assay: Histamine H1 functional antagonist assay (FLIPR); assay type: cell-based; conditions: functional antagonism vs histamine EC80, FLIPR, CHO cells; read-out: average pki (pKb) at H1 (converted)
T1 construct: expressed in transfected cells
Method: H1 Receptor Cell Line Generation and FLIPR Assay Protocol
1. Generation of Histamine H1 Cell Line
The human H1 receptor was cloned using known procedures described in the literature [Biochem. Biophys. Res. Commun. 1994, 201(2), 894]. Chinese hamster ovary cells stably expressing the human H1 receptor were generated according to known procedures described in the literature [Br. J. Pharmacol. 1996, 117(6), 1071].
Histamine H1 Functional Antagonist Assay […]
10 μl of test compound, diluted to the required concentration in Tyrodes buffer+probenecid (or 10 μl Tyrodes buffer+probenecid as a control) was added to each well and the plate incubated for 30 min at 37° C., 5% CO2. The plates were then placed into a FLIPR™ (Molecular Devioes, UK) to monitor cell fluorescence (λex=488 nm, λEM=540 nm) in the manner described in Sullivan et al. (In: Lambert DG (ed.), Calcium Signaling Protocols, New Jersey: Humana Press, 1999, 125-136) before and after the addition of 10 μl histamine at a concentration that results in the final assay concentration of histamine being EC80.
Functional antagonism is indicated by a suppression of histamine induced increase in fluorescence, as measured by the FLIPR™ system (Molecular Devices). By means of concentration effect curves, functional affinities are determined using standard pharmacological mathematical analysis.

histamine H3 receptor = target: T2, histamine H3 receptor (Homo sapiens, UniProt Q9Y5N1); assay: Histamine H3 functional antagonist assay ([35S]-GTPγS, CHO cell membranes); assay type: biochemical; conditions: functional antagonism vs histamine EC80, GTPγS; read-out: average pki (pKb) at H3 (converted)
T2 construct: expressed in transfected cells; host or cells: CHO K1 cells carrying pSwitch, transfected with pGeneH3, induced with mifepristone; clone 3H3; membrane preparation
From the text: 2. H3 Receptor Cell Line Generation, Membrane Preparation and Functional GTPγS Assay Protocols
Generation of Histamine H3 Cell Line
The histamine H3 cDNA was isolated from its holding vector, pcDNA3.1 TOPO (InVitrogen), by restriction digestion of plasmid DNA with the enzymes BamH1 and Not-1 and ligated into the inducible expression vector pGene (InVitrogen) digested with the same enzymes. The GeneSwitch™ system (a system where in transgene expression is switched off in the absence of an inducer and switched on in the presence of an inducer) was performed as described in U.S. Pat. Nos. 5,364,791; 5,874,534; and 5,935,934. […]
10-14 days post selection 10 nM Mifepristone (InVitrogen), was added to the culture medium to induce the expression of the receptor. […] Receptor bound antibody was detected by incubation of the cells for 60 minutes on ice with a goat anti rabbit antibody, conjugated with Alexa 488 fluorescence marker (Molecular Probes). Following two further washes with Sorting Medium, cells were filtered through a 50 μm Filcon™ (BD Biosciences) and then analysed on a FACS Vantage SE Flow Cytometer fitted with an Automatic Cell Deposition Unit. […]

T2 sequence (Q9Y5N1 whole entry, species assumed): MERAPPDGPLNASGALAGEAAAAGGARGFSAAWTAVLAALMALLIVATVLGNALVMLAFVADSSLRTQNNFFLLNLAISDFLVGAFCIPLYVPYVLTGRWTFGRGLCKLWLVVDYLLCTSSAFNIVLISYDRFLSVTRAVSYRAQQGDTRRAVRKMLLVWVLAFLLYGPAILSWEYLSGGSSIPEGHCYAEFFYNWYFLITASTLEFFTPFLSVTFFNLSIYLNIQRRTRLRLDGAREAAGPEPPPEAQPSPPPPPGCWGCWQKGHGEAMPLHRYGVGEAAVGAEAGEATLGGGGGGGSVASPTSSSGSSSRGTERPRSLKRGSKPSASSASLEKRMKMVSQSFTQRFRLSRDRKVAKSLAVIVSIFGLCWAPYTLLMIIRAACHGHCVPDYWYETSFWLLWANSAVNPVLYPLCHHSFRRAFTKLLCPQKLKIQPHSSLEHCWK
T1 sequence (P35367 whole entry): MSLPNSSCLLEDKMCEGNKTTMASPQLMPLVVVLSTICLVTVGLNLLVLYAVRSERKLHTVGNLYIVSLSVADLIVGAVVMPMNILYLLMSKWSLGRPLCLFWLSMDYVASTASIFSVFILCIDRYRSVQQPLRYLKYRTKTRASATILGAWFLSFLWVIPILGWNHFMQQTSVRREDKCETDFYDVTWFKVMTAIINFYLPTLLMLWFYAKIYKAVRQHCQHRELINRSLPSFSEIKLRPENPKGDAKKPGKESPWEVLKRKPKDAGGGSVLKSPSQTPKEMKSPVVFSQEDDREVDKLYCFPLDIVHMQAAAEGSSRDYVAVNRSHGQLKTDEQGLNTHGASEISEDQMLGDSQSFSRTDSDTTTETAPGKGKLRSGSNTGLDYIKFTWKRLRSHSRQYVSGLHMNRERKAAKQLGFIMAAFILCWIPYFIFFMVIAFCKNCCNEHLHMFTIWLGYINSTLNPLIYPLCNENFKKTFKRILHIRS

concentration at 5 min (CNS penetration): < 100 ng/g
clearance (Dog pharmacokinetics; male, Beagle, whole blood, 1 mg/kg intravenous): ~10 mL/min/kg
half-life (Dog pharmacokinetics; male, Beagle, whole blood, IV route, 1 mg/kg): ~5 h
oral bioavailability in the dog (Dog pharmacokinetics; oral 2 mg/kg vs intravenous 1 mg/kg): about 99 % F
clearance (Rat pharmacokinetics; male, CD Sprague Dawley, whole blood, 1 mg/kg intravenous): ~29 mL/min/kg
half-life (Rat pharmacokinetics; male, CD Sprague Dawley, whole blood, IV route, 1 mg/kg): ~2 h
oral bioavailability in the rat (Rat pharmacokinetics; oral 3 mg/kg vs intravenous 1 mg/kg): greater than 50 %F
Ki (human H1 receptor): ~2510 nM
Ki (histamine H3 receptor): ~0.251 nM
SMILES: CS(=O)(=O)c1ccc(C(=O)N2CCN(c3ccc(OC4CCN(C5CCC5)CC4)cc3)CC2)cc1 [compound of formula (I), 1-{4-[(1-Cyclobutyl-4-piperidinyl)oxy]phenyl}4-{[4-(methylsulfonyl)phenyl]carbonyl}piperazine]
